Some test systems named below: UACC-62 melanoma; HS 578T breast; KM12 colon; M14 melanoma; SF-268 CNS; NCI-H23 lung; SK-OV-3 ovarian; DU-145 prostate; NCI-H522 lung; CAKI-1 renal.
What all share (test): NCI-60 cell line screen, 48 h

Results on eight molecules are retold here after PubChem BioAssay (NCI).

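Grown in 96-well plates, cells were treated for 48 hours with each compound at five concentrations. Insufficient inhibition: endpoint recorded as highest concentration tested. At the GI50, growth is halved. At the TGI there is no net growth.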

In the case of `CC(C)=CCc1c(O)cc(/C=C/c2cc(O)c3c(c2)C[C@@H]2C(C)(C)[C@H](O)[C@H](O)C[C@@]2(C)O3)cc1O`, the GI50 was 0.0462 µM with UACC-62 melanoma; < 0.001 µM with HS 578T breast; 0.59 µM in the experiment with KM12 colon; 0.548 µM in the experiment with M14 melanoma; 1.11 µM in the experiment with SF-268 CNS; 1.51 µM with NCI-H23 lung. Further, the GI50 is 0.264 µM in the experiment on SK-OV-3 ovarian, 1.96 µM in the experiment with DU-145 prostate, 0.363 µM in the experiment on NCI-H522 lung and 0.00267 µM in the experiment on CAKI-1 renal. Moreover, the TGI is 0.325 µM in the experiment with UACC-62 melanoma; > 2.21 µM in the experiment with HS 578T breast; 4.11 µM in the experiment with KM12 colon; 4.02 µM in the experiment on M14 melanoma; > 7.76 µM with SF-268 CNS; 7.68 µM in the experiment with NCI-H23 lung. Further, the TGI in the experiment on SK-OV-3 ovarian was 3.73 µM; in the experiment with DU-145 prostate it was > 10 µM; in the experiment with NCI-H522 lung, 2.86 µM; with CAKI-1 renal, > 5.6 µM.
`O=C(COc1cccc(/C=C2\COc3ccccc3C2=O)c1)Nc1nccs1`: the GI50 with UACC-62 melanoma is 1.69 µM; in the experiment with HS 578T breast it was 2.67 µM; in the experiment on KM12 colon, 1.71 µM; with M14 melanoma, 1.85 µM; in the experiment on SF-268 CNS it was 1.95 µM; with NCI-H23 lung, 1.95 µM. Besides, the GI50 is 17.4 µM in the experiment with SK-OV-3 ovarian, 1.96 µM with DU-145 prostate, 1.52 µM with NCI-H522 lung and 1.61 µM in the experiment on CAKI-1 renal. Also, the TGI with UACC-62 melanoma came out at 3.76 µM; with HS 578T breast it was 10.9 µM; in the experiment with KM12 colon, 3.15 µM; with M14 melanoma it was 3.71 µM; in the experiment with SF-268 CNS, 3.69 µM; with NCI-H23 lung, 3.94 µM. The TGI in the experiment with SK-OV-3 ovarian was 31.1 µM; in the experiment on DU-145 prostate it was 3.37 µM; in the experiment with NCI-H522 lung, 3.19 µM; in the experiment on CAKI-1 renal, 3.56 µM.
Consider `O=S1(=O)CCN(Cc2ccccn2)CC1`, for which the TGI in the experiment on UACC-62 melanoma, with HS 578T breast, in the experiment on KM12 colon, with M14 melanoma, in the experiment on SF-268 CNS and in the experiment with NCI-H23 lung was > 100 µM each time. Also, the TGI in the experiment with SK-OV-3 ovarian, in the experiment on DU-145 prostate, in the experiment with NCI-H522 lung and in the experiment on CAKI-1 renal was > 100 µM each time.
For the molecule `COC(CCP(=O)(c1ccccc1)c1ccccc1)(C(=O)c1ccccc1)c1ccccc1` (stereo not given), the GI50 in the experiment on UACC-62 melanoma is 2.39 µM; in the experiment on HS 578T breast, 4.81 µM; in the experiment with KM12 colon, 3.06 µM; in the experiment with M14 melanoma, 3.5 µM; in the experiment with SF-268 CNS it was 10.2 µM; in the experiment with NCI-H23 lung, 4.5 µM. In addition, the GI50 with SK-OV-3 ovarian is 8.05 µM; with DU-145 prostate, 12 µM; with NCI-H522 lung, 4.71 µM; with CAKI-1 renal it was 2.95 µM. Moreover, the TGI in the experiment with UACC-62 melanoma worked out at 15.1 µM; with HS 578T breast, 23.1 µM; in the experiment with KM12 colon it was 13.4 µM; with M14 melanoma, 15.3 µM; in the experiment on SF-268 CNS, 21.9 µM; in the experiment on NCI-H23 lung, 17.8 µM. Further, the TGI in the experiment with SK-OV-3 ovarian was determined as 21.8 µM; in the experiment on DU-145 prostate it was 24.3 µM; with NCI-H522 lung, 26 µM; in the experiment with CAKI-1 renal, 12.2 µM.
Consider `COc1ccc(C(O)CNC(=O)c2ccccc2)cc1` (stereo not given), for which the TGI in the experiment on UACC-62 melanoma, with HS 578T breast, with KM12 colon, in the experiment on M14 melanoma, in the experiment on SF-268 CNS and with NCI-H23 lung was > 100 µM throughout. The TGI in the experiment on SK-OV-3 ovarian, in the experiment with DU-145 prostate, with NCI-H522 lung and in the experiment with CAKI-1 renal was > 100 µM throughout.
Consider `COc1cccc(/C=N\Nc2ccc([N+](=O)[O-])cn2)c1O`, for which the GI50 in the experiment on UACC-62 melanoma was 2.47 µM; with HS 578T breast, 4.52 µM; in the experiment on KM12 colon, 6.04 µM; in the experiment with M14 melanoma, 3.34 µM; in the experiment with SF-268 CNS, 2.58 µM; with NCI-H23 lung, 2.92 µM. In addition, the GI50 was 2.94 µM in the experiment on SK-OV-3 ovarian, 4.34 µM with DU-145 prostate, 3.34 µM with NCI-H522 lung and 1.74 µM in the experiment with CAKI-1 renal. Moreover, the TGI was 8.9 µM in the experiment with UACC-62 melanoma; > 100 µM in the experiment on HS 578T breast; 51.5 µM in the experiment on KM12 colon; 25.9 µM with M14 melanoma; 23.8 µM in the experiment with SF-268 CNS; 14.9 µM in the experiment on NCI-H23 lung. The TGI in the experiment with SK-OV-3 ovarian came to 20.4 µM; in the experiment on DU-145 prostate it was 62.6 µM; in the experiment on NCI-H522 lung, 18.4 µM; in the experiment with CAKI-1 renal, 4.14 µM.
As to `O=C1/C(=C/c2ccccc2Cl)N=C(c2ccccc2)N1Cc1ccco1`, the GI50 with UACC-62 melanoma was 12.6 µM; with HS 578T breast it was 72.8 µM; in the experiment with KM12 colon, 36.1 µM; in the experiment with M14 melanoma, 18.6 µM; in the experiment with SF-268 CNS, 50.2 µM; in the experiment with NCI-H23 lung it was 40.5 µM. In addition, the GI50 was > 100 µM in the experiment with SK-OV-3 ovarian, 69.2 µM in the experiment on DU-145 prostate, 26.2 µM with NCI-H522 lung and 94.3 µM in the experiment with CAKI-1 renal. The TGI with UACC-62 melanoma was 34.7 µM; in the experiment with HS 578T breast, > 100 µM; with KM12 colon, > 100 µM; in the experiment on M14 melanoma it was 38.2 µM; in the experiment on SF-268 CNS, > 100 µM; in the experiment on NCI-H23 lung, > 100 µM. The TGI with SK-OV-3 ovarian is > 100 µM; in the experiment with DU-145 prostate, > 100 µM; in the experiment with NCI-H522 lung, 66.7 µM; in the experiment with CAKI-1 renal, > 100 µM.
Turning to `O=C1C=C(Nc2ccccc2C(=O)CC(=O)C(=O)Nc2cccc(C(F)(F)F)c2)c2ccccc2C1=O`, the TGI was 32.3 µM in the experiment on UACC-62 melanoma; 66.2 µM in the experiment on HS 578T breast; > 95.9 µM with KM12 colon; 31.7 µM in the experiment with M14 melanoma; 73.3 µM with SF-268 CNS; 30.5 µM in the experiment with NCI-H23 lung. Further, the TGI was > 100 µM in the experiment on SK-OV-3 ovarian, > 100 µM in the experiment on DU-145 prostate, 79.2 µM with NCI-H522 lung and 99.8 µM in the experiment on CAKI-1 renal.
